Experimental data taken from paper PMC11018627, “KdpD is a tandem serine histidine kinase that controls K^+ pump KdpFABC transcriptionally and post-translationally” (Nature Communications, 2024).

Experiments:
[1] = molecular target: T1, KdpDNTD (Escherichia coli, UniProt P21865); test: in vitro phosphorylation of KdpB, phosphoprotein gel stain; format: biochemical; settings: phosphate donor of serine kinase; 5 mM ATP, 400 mM KCl, room temperature, 30 min, KdpFABC (KdpB D307N) as protein substrate; no ATPase activity alone
T1 construct: gene kdpD

[2] = molecular target: T2, DgKdpD (Deinococcus geothermalis, UniProt Q1J2K3); test: as above; format: biochemical; settings: phosphate donor of serine kinase; 5 mM ATP, 1 mM c-di-AMP, room temperature, 30 min, E. coli KdpFABC (KdpB D307N) as protein substrate
T2 construct: gene Dgeo_2852; short KdpD/Usp domain version, full chain; expressed in E. coli TK2281 from pBXC3H; His-tag removed with 3C protease on column
T2 sequence (Q1J2K3 entry or part of it): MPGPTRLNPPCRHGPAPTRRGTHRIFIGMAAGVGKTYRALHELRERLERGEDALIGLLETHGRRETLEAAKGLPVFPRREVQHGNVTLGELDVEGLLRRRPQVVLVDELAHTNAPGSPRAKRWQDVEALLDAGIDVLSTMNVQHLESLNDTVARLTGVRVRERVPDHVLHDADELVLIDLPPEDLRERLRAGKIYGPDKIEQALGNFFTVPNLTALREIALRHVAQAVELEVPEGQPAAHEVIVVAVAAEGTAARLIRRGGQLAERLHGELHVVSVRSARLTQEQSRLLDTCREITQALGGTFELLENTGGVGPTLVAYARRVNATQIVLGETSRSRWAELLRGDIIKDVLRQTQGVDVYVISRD

[3] = molecular target: T3, EcKdpD (Escherichia coli, UniProt P21865); test: as above; format: biochemical; settings: phosphate donor of serine kinase; 5 mM ATP, 400 mM KCl, room temperature, 30 min, KdpFABC (KdpB D307N) as protein substrate
T3 construct: gene kdpD; full-length, from pBXC3H (His-tag), produced in E. coli TK2281, purified in DDM or SMALPs
T3 sequence (P21865 1-894): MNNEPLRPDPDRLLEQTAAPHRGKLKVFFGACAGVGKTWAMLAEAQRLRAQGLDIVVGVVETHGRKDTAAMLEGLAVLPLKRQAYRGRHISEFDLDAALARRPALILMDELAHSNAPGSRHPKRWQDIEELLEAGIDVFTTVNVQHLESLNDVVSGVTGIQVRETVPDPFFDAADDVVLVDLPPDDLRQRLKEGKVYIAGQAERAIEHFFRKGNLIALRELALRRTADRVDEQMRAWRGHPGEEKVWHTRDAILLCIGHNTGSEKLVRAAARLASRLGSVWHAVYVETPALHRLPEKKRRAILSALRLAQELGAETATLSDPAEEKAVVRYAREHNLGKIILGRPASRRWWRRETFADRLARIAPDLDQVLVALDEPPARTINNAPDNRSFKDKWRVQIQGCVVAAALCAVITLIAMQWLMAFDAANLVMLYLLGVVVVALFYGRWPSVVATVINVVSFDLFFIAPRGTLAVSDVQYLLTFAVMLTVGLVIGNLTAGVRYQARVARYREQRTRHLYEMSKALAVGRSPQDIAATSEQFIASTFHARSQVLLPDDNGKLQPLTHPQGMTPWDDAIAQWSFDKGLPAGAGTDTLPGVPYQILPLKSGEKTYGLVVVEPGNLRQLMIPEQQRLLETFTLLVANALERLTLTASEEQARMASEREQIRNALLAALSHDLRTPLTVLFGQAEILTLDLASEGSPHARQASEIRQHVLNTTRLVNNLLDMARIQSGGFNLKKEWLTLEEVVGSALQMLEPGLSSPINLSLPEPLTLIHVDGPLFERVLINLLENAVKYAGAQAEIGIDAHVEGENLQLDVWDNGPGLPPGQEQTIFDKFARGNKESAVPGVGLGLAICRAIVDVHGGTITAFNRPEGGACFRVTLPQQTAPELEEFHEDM

[4] = molecular target: T4, KdpFABC (Escherichia coli, UniProt P03960); settings: 2 mM ATP, 1 mM KCl, 37 °C; non-phosphorylated complex purified from E. coli TK2281
T4 construct: gene kdpB
T4 sequence (P03959 whole entry): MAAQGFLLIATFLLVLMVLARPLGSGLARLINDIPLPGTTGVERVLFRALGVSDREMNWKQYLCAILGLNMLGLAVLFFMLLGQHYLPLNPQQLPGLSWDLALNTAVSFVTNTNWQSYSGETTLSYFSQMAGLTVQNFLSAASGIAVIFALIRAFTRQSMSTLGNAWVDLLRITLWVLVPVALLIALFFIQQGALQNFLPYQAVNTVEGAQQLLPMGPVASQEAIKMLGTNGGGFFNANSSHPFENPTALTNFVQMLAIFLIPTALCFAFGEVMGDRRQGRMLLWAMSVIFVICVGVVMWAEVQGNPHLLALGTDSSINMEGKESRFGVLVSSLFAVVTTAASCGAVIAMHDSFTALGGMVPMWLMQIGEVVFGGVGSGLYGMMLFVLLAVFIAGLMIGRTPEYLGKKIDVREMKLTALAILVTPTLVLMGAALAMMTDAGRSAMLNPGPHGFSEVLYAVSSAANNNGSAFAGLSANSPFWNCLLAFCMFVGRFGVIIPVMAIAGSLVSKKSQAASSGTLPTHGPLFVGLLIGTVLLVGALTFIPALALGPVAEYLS
T4 sequence (P36937 whole entry, further chain): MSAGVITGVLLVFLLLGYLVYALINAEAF
T4 sequence (P03961 whole entry, further chain): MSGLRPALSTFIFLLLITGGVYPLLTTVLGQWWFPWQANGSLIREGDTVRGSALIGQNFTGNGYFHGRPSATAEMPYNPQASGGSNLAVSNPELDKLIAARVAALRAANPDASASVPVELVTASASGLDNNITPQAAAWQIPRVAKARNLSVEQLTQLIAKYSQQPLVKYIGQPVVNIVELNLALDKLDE
T4 sequence (P03960 whole entry): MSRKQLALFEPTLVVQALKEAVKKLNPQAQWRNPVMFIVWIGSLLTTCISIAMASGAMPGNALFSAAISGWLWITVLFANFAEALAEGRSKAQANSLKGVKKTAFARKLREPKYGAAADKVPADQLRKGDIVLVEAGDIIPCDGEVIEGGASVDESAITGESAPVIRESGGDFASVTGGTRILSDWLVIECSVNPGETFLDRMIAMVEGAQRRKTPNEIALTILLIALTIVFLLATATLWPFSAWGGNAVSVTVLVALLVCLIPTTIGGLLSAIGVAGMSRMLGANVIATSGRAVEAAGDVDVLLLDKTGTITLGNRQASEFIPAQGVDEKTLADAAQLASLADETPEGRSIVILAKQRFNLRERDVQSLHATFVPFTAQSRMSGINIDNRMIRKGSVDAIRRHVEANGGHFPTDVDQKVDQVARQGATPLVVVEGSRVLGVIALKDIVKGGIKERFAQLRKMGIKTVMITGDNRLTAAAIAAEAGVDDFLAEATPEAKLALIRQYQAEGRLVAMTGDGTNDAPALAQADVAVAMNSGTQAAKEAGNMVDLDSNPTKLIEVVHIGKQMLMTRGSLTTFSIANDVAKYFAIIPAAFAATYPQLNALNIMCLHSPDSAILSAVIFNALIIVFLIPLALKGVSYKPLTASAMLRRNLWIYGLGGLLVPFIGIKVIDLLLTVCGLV

[5] = molecular target: T2, DgKdpD; test: in vitro phosphorylation of E. coli KdpB, phosphoprotein gel stain; format: biochemical; settings: activator; 1 mM c-di-AMP, 5 mM ATP, E. coli KdpFABC (KdpB D307N) as protein substrate, room temperature, 30 min

| SMILES | in vitro phosphorylation of KdpB, phosphoprotein gel stain [1] | in vitro phosphorylation of KdpB, phosphoprotein gel stain [2] | in vitro phosphorylation of KdpB, phosphoprotein gel stain [3] | malachite green ATPase assay [4] | stimulation of ASK activity at 1 mM [5] |
| --- | --- | --- | --- | --- | --- |
| Nc1ncnc2c1ncn2[C@@H]1O[C@H](COP(=O)(O)OP(=O)(O)OP(=O)(O)O)[C@@H](O)[C@H]1O [ATP] | This truncated construct remained able to phosphorylate KdpB | DgKdpD can phosphorylate E. coli KdpB | Upon incubation with full-length KdpD, the phosphorylation was fully restored | KdpFABC produced under these conditions showed a high ATPase activity |  |
| Nc1ncnc2c1ncn2[C@@H]1O[C@@H]2COP(=O)(O)O[C@H]3[C@@H](O)[C@H](n4cnc5c(N)ncnc54)O[C@@H]3COP(=O)(O)O[C@H]2[C@H]1O [c-di-AMP] |  |  |  |  | phosphorylation of E. coli KdpB by DgKdpD was stimulated in the presence of c-di-AMP |
